This note sets out measurements from patent publication US20230416245A1, “ADENOSINE ANALOGS FOR THE TREATMENT OF DISEASE” (BIOINTERVENE, INC., priority 2020, published 2023).

One assay concerns the target ADORA3 (Homo sapiens (Human), UniProt P0DMS8). Description: Intracellular calcium release assay (FLIPR). The assay is classed as cell-based. Conditions: for pEC50: CHO-K1 cells, Fluo-4, top concentration 10 μM, read-out: Cell Calcium Assay EC50; for Cell Calcium Efficacy (%): percentage of the response to NECA. The procedure: Example 32: Intracellular Calcium Release Assay
Cell Culture: The table below lists the cell lines used that stably express the 4 subtypes of adenosine receptors, along with the growth medium used for each:
For experiments with the ADORA1- and ADORA3-expressing cells, the medium was aspirated and the cells washed twice with 10 mL DPBS. Two mL of trypsin was added and incubated at 37° C. for 1 minute. Then 10 mL of platting media was added to terminate the digestion and 1 mL of the solution was taken out for cell counting. ADORA2A- and ADORA2B-expressing cells were thawed rapidly in a 37° C. water bath. Cell suspensions were transferred to 50 mL conical tubes. Plating media was added to the 10 mL mark and then 1 mL taken out for cell counting. The 50 mL tubes containing the various types of cells were centrifuged at 1000 g. Then the supernatants were aspirated, being careful not to aspirate the cells. The cell pellets were resuspended in 3-5 mL platting media, then 0.5 mL was taken out for cell counting. Then the cell suspension was diluted to 1×10^6 cells/mL (20,000 cells per 20 μL per well) in platting medium, and cells were seeded into 384-well cell plates (Greiner-781946). The 384-well cell plate was placed in a 37° C./5% CO2 incubator (Thermo-371, Thermo Scientific) for 16-20 hours.
Preparation of the intracellular calcium imaging agent (Fluo-4 Direct™ Calcium Assay Kit, Invitrogen-F10471, Thermo Scientific): One mL of FLIPR Assay Buffer was added to 77 mg probenecid to make a 250 mM solution, which was used fresh for each day. One vial of Fluo-4 Direct™ crystals was thawed and 10 mL of FLIPR Assay Buffer was added to the vial. 0.2 mL of probenecid was added to each 10 mL vial of Fluo-Direct™ solution, such that the final assay concentration was 2.5 mM. It was vortexed, left to stand >5 min and protected from light. The dye was prepared fresh each day.
Compound Preparation: Compound plates were prepared as follows. First, the test compound was diluted to prepare a 2 mM solution and then 10-point 3-fold serial dilutions were made using ECHO (ECHO 555, LabCyte), then 900 nL was transferred to the compound plate. For all targets, the final top concentration of the test compound was […]. For agonist reference compounds, 10-point and 3-fold serial dilutions were made, then 900 nL was transferred to the assay plate. Then 30 μL of assay buffer was added to the compound plate and then the plate was centrifuged at 1000 rpm for 1 min.
FLIPR Assay: Cell plates were removed from the incubator, to which were added 20 μL 2×Fluo-4 Direct™ solution, then the plates were reincubated in a 5% CO2, 37° C. incubator for 50 min and at RT for 10 min. To run the protocol on the Fluorescent Imaging Plate Reader (FLIPR) TETRA (MD-FT0249, Molecular Devices, Inc.), 10 μL of assay buffer was transferred from the 384-well plate (Greiner-781280) to the cell plates and then the fluorescence signal was read. Then 10 μL of compound solution was transferred from the compound plate to the cell plates and the fluorescence signal was read. The “Max-Min” was calculated, starting from Read 91 to the maximum allowed. For agonists, activation %=(RLU−LC)/(HC−LC)*100, based on the following: RLU=relative light unit, 91 to maximum allowed signal; HC=average signal of the high concentration of agonist; LC=average signal of DMSO well. The data were fitted using GraphPad Prism 5, using the model “log(agonist) vs. response—Variable slope” to determine the EC50 value. The receptor efficacy of the test compound relative to the agonist NECA was calculated as a percentage (%) of the response to […]. Table 10 includes EC50 values for compounds described herein.
A general note: Calcium assays in cells follow changes in intracellular calcium, usually with a dye or a luminescent sensor.

Assay [1] concerns the target human adenosine A3 receptor (Homo sapiens (Human), UniProt P0DMS8). The assay is described as follows: Intracellular cAMP levels (inhibition of forskolin-stimulated cAMP production). Particulars: for pEC50: CHO cells expressing human adenosine A3 receptors, forskolin 10 μM; for CAMP Efficacy (%): maximal response as percentage of the response produced by 100 nM IB-MECA. The assay is classed as cell-based. From the text:
Example 31: Intracellular cAMP Levels
The method followed is that published in Yates L, Clark J H, Martin T J, James S, Broadley K J, Kidd E J. Radioligand binding and functional responses of ligands for human recombinant adenosine A3 receptors. Auton Autacoid Pharmacol. 2006 April; 26(2):191-200.
Materials and Cell Culture: Adenosine deaminase was obtained from Roche (Lewes, UK). Forskolin was obtained from Sigma-Aldrich (Poole, UK). The sources of other materials are provided above in Example 1. CHO-K1 cells stably transfected with the human adenosine A3 receptor were grown in Dulbecco's modified Eagles medium with nutrient mixture F12 containing NaHCO3 and Glutamax. Media was supplemented with 10% fetal calf serum, geneticin (G418; 0.67 mg/mL), hygromycin (500 μg/mL) and adenosine deaminase (1 U/mL). Cells were maintained at 37° C. with 5% CO2 in air.
cAMP Measurements: Intracellular cAMP production was measured directly using a non-acetylation cAMP enzyme immunoassay (Amersham Biosciences, Little Chalfont, UK). Cultured CHO cells expressing human adenosine A3 receptors were allowed to plate overnight in 96-well plates in culture medium containing adenosine deaminase. Twenty-four hours later, they were incubated with adenosine analogues or compounds of the invention (0.1 nM-1 μM) for 5 min at 37° C., followed by incubation with forskolin (10 μM) for 10 min. The cells were then lysed with 200 μL of lysis reagent 1 provided with the kit for 10 min to release intracellular cAMP. Aliquots of the supernatants were then transferred to a 96-well microtitre plate coated with donkey anti-rabbit IgG; 100-μL cAMP standards (12.5-3200 fmol/well) were also added to the microtitre plate; 100 μL of rabbit anti-cAMP antibody was added to all wells and incubated at 2-5° C. for 2 h. The antiserum was made up in lysis reagent 2, which sequesters the key component in lysis reagent 1 and ensures that cAMP is free for subsequent analysis. Then 50 μL of cAMP peroxidase conjugate was added to all wells and left to incubate for 60 min at 2-5° C. to allow competition for the antibody between the un-labelled and horse radish peroxidase (HRP)-labelled cAMP. Wells were then washed with buffer and 150 μL of enzyme substrate containing 3,3′,5,5′-tetramethylbenzidine/hydrogen peroxide in 20% (v/v) dimethylformamide was added to each well and left to incubate for 60 min on a Titramax 100 microtitre plate shaker (Heidolph Instruments, Schwabach, Germany) at room temperature for color development. The reaction was stopped by the addition of 100 μL of 1 M sulfuric acid and the optical density (OD) read at 450 nm on a spectrophotometric MRX microplate reader (Dynex Technologies, Chantilly, VA, USA).
Analyses: Each sample/standard was analyzed in duplicate and the resulting OD values averaged. The percent bound (B/Bo) for each standard and sample was calculated using the following relationship: […]
where B is the specific OD for standard/sample and Bo is the specific OD for the zero standard. A standard curve was generated by plotting % B/Bo as a function of the log fmol cAMP standard per well. The fmol per well value for cAMP in each sample was then read from the graph. The results are expressed as a percent of control agonist response: (measured response/control response)*100 in the presence of the compounds of the invention. Concentration-response curves for inhibition of cAMP production were constructed for all compounds of the invention and reference compounds. The EC50 values (concentration producing a half-maximal response) were determined by non-linear regression analysis of the concentration-response curves generated with mean replicate values using Hill equation curve fitting, according to the equation:
where Y=response, A=left asymptote of the curve, D=right asymptote of the curve, C=compound concentration, and C50=EC50, and nH=slope factor. […]

For orientation: pEC50 means the EC50 on a negative log10 scale, so that one unit is a factor of ten.

pEC50: −log10 of the molar value.

Chain of human adenosine A3 receptor (P0DMS8 whole entry): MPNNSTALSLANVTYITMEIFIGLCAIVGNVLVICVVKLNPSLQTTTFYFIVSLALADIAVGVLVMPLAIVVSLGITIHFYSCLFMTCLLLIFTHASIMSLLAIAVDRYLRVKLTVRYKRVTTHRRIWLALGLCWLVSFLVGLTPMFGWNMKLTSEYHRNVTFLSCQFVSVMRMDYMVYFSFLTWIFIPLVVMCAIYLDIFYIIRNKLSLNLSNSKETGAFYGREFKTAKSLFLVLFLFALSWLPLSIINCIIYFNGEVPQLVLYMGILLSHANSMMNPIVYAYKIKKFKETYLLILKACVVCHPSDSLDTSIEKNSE
Chain of ADORA3 (P0DMS8 whole entry): as above

In the case of `CCNc1cc(Cl)nc2c1ncn2[C@H]1[C@H](O)[C@H](O)[C@]2(C(=O)NC)C[C@H]12` [Compound 59, (1S,2R,3S,4R,5S)-4-(5-chloro-7-(ethylamino)-3H-imidazo[4,5-b]pyridin-3-yl)-2,3-dihydroxy-N-methylbicyclo[3.1.0]hexane-1-carboxamide], on ADORA3, the pEC50 was 8.92 and the “Cell Calcium Efficacy (%)” value was 103.9%. In assay [1], the negative logarithm of the EC50 (pEC50) was 9.96 and the “CAMP Efficacy (%)” value amounted to 106.95%.

`CCNc1nc(C#CC2CC2)nc2c1ncn2[C@H]1[C@H](O)[C@H](O)[C@@H]2C[C@@H]21` [Compound 39, (1R,2R,3S,4R,5S)-4-(2-(cyclopropylethynyl)-6-(ethylamino)-9H-purin-9-yl)bicyclo[3.1.0]hexane-2,3-diol]: at ADORA3, the pEC50 was 8.01 and the “Cell Calcium Efficacy (%)” value is reported as 15.4%. Further, in assay [1], the pEC50 was 9.70 and the “CAMP Efficacy (%)” value was found to be 54.4%.

As to `O[C@@H]1[C@H](O)[C@@H]2C[C@@H]2[C@H]1n1cnc2c(NCC(F)F)nc(C#CC3CC3)nc21` [Compound 38, (1R,2R,3S,4R,5S)-4-(2-(cyclopropylethynyl)-6-((2,2-difluoroethyl)amino)-9H-purin-9-yl)bicyclo[3.1.0]hexane-2,3-diol], at ADORA3, the pEC50 is 7.84 and the “Cell Calcium Efficacy (%)” value came out at 24.7%. Besides, in assay [1], the pEC50 is 8.74 and the “CAMP Efficacy (%)” value amounted to 65.1%.
